In brackets after ≈: the same amount, converted by molar mass. Like-named read-outs stand apart in the source and are kept apart here.
Legend:
[1] = Stability against human liver microsomes; type: in vitro ADME; details: 2 μM compound
Experimental: (§1) Determination of Stability Against Mouse and Human Mirosomes
(§2) Pooled human liver microsomes (Cat. 452161; Lot. 23418) were purchased from Corning and pooled male mouse liver microsomes (Cat. M1000; Lot. 1210302) were purchased from Xenotech. Microsomes were stored at −80° C. prior to use. 40 μL of ultra-pure H2O was used instead of NADPH solution in the negative control. The negative control was used to exclude the misleading factor that was resulted from instability of chemical itself. Samples with NADPH were prepared in duplicate. Negative controls were prepared in singlet.
(§3) The reaction was started with the addition of 4 μL of 200 μM compound solution to each master solution to get the final concentration of 2 μM. Verapamil was used as positive control in the assay. Aliquots of 50 μL were taken from the reaction solution at 0, 15, 30, 45 and 60 min. The reaction was stopped by addition of 4 volumes of cold acetonitrile with IS (200 nM imipramine, 200 nM labetalol and 2 μM ketoprofen). Samples were centrifuged at 3,220 g for 40 minutes. Aliquot of […] of the supernatant was mixed with 90 μL of ultra-pure H2O and then was used for LC-MS/MS analysis. Results are shown in Table 3 by indicating remaining % of the test compound after 60 minutes incubation with liver microsomes from human and mouse in the presence of NADPH.

[2] = Solubility in pH4.0 and pH7.4 phosphate buffer solution; type: physicochemical; details: phosphate buffer (PBS), aqueous buffer, kinetic from dmso stock, 2 hr incubation, 25° C.
Experimental: 1) Preparation of Stock Solutions
Diclofenac was used as positive control in the assay.
2) Procedures for Solubility Determination
This study was performed in duplicate. […] The filtered samples were diluted with methanol.
3) Samples Analyzed by LC-MS/MS

[3] = Stability against mouse liver microsomes; type: in vitro ADME; details: for Liver microsome stability remaining % after 60 min incubation with NADPH, mouse LM: 2 μM compound
Experimental: as §1, §2, §3

[4] = pH 4.0 phosphate buffer solution, read-out: Solubility, pH 4.0 PBS
[5] = pH 7.4 phosphate buffer solution, read-out: Solubility, pH 7.4 PBS

Row | Structure (SMILES) | Liver microsome stability remaining % after 60 min incubation with NADPH, human LM [1] [%] | solubility at 2 h [2, 4] [µM] | solubility at 2 h [2, 5] [µM] | Liver microsome stability remaining % after 60 min incubation with NADPH, mouse LM [3] [%] | metabolic stability: % remained after 1 hr incubation ([3]; liver microsomes of human and mouse in the presence of NADPH, 1 hr) [%]
1 | CC(/C=C/[C@@]1(C)[C@H](C)CC/C(=N\OCC(=O)O)[C@@H]1C)=C\Cc1c(O)c(/C=N/O)c(C)c(Cl)c1OCF [Compound 27, 2-([[(1E,2R,3R,4R)-3-[(1E,3E)-5-[3-chloro-2-(fluoromethoxy)-6-hydroxy-5-[(1E)-(hydroxyimino)methyl]-4-methylphenyl]-3-methylpenta-1,3-dien-1-yl]-2,3,4-trimethylcyclohexylidene]amino]oxy)acetic Acid] | 99 | 165 (≈ 86.6 µg/mL) | 315 (≈ 165 µg/mL) | 97 | 
2 | COc1c(Cl)c(C)c(/C=N/O)c(O)c1C/C=C(C)/C=C/[C@@]1(C)[C@H](C)CC/C(=N\O)[C@@H]1C [Compound 3, 4-chloro-2-[(2E,4E)-5-[(1R,2R,3E,6R)-3-(hydroxyimino)-1,2,6-trimethylcyclohexyl]-3-methylpenta-2,4-dien-1-yl]-6-[(1E)-(hydroxyimino)methyl]-3-methoxy-5-methylphenol] | 74 |  |  | 58 | 
3 | CO/N=C/c1c(C)c(Cl)c(OC)c(C/C=C(C)/C=C/[C@@]2(C)[C@H](C)CC/C(=N\OCCN3CCOCC3)[C@@H]2C)c1O [Compound 16, 4-chloro-3-methoxy-6-[(1E)-(methoxyimino)methyl]-5-methyl-2-[(2E,4E)-3-methyl-5-[(1R,2R,3E,6R)-1,2,6-trimethyl-3-[[2-(morpholin-4-yl)ethoxy]imino]cyclohexyl]penta-2,4-dien-1-yl]phenol] | 56 |  |  | 76 | 
4 | CO/N=C/c1c(C)c(Cl)c(OCF)c(C/C=C(C)/C=C/[C@@]2(C)[C@H](C)CC/C(=N\O)[C@@H]2C)c1O [Compound 11, 4-chloro-3-(fluoromethoxy)-2-[(2E,4E)-5-[(1R,2R,3E,6R)-3-(hydroxyimino)-1,2,6-trimethylcyclohexyl]-3-methylpenta-2,4-dien-1-yl]-6-[(1E)-(methoxyimino)methyl]-5-methylphenol] | 81 |  |  | 56 | 
5 | CO/N=C/c1c(C)c(Cl)c(OC)c(C/C=C(C)/C=C/[C@@]2(C)[C@H](C)CC/C(=N\OC)[C@@H]2C)c1O [Compound 8, 4-chloro-3-methoxy-2-[(2E,4E)-5-[(1R,2R,3E,6R)-3-(methoxyimino)-1,2,6-trimethylcyclohexyl]-3-methylpenta-2,4-dien-1-yl]-6-[(1E)-(methoxyimino)methyl]-5-methylphenol] | 100 |  |  | 89 | 
6 | CO/N=C/c1c(C)c(Cl)c(OCF)c(C/C=C(C)/C=C/[C@@]2(C)[C@H](C)CC/C(=N\OC)[C@@H]2C)c1O [Compound 9, 4-chloro-3-(fluoromethoxy)-2-[(2E,4E)-5-[(1R,2R,3E,6R)-3-(methoxyimino)-1,2,6-trimethylcyclohexyl]-3-methylpenta-2,4-dien-1-yl]-6-[(1E)-(methoxyimino)methyl]-5-methylphenol] | 100 |  |  | 83 | 
7 | COc1c(Cl)c(C)c(C=O)c(O)c1C/C=C(C)/C=C/[C@@]1(C)[C@H](C)CCC(=O)[C@@H]1C [MAC, 3-chloro-6-hydroxy-4-methoxy-2-methyl-5-[(2E,4E)-3-methyl-5-[(1R,2R,6R)-1,2,6-trimethyl-3-oxocyclohexyl]penta-2,4-dien-1-yl]benzaldehyde, reference compound] | 2 | < 0.08 | 0.07 (≈ 0.0293 µg/mL) | 6 | 6
8 | CO/N=C/c1c(C)c(Cl)c(OC)c(C/C=C(C)/C=C/[C@@]2(C)[C@H](C)CC/C(=N\O)[C@@H]2C)c1O [Compound 10, 4-chloro-2-[(2E,4E)-5-[(1R,2R,3E,6R)-3-(hydroxyimino)-1,2,6-trimethylcyclohexyl]-3-methylpenta-2,4-dien-1-yl]-3-methoxy-6-[(1E)-(methoxyimino)methyl]-5-methylphenol] | 83 |  |  | 63 | 
9 | CO/N=C/c1c(C)c(Cl)c(OC)c(C/C=C(C)/C=C/[C@@]2(C)[C@H](C)CCC(NC3COC3)[C@@H]2C)c1O (stereo partly drawn) [Compound 25, 4-chloro-3-methoxy-6-[(1E)-(methoxyimino)methyl]-5-methyl-2-[(2E,4E)-3-methyl-5-[(1R,2R,6R)-1,2,6-trimethyl-3-[(oxetan-3-yl)amino]cyclohexyl]penta-2,4-dien-1-yl]phenol] | 66 |  |  | 39 | 
10 | CCOC(=O)CO/N=C1\CC[C@@H](C)[C@](C)(/C=C/C(C)=C/Cc2c(O)c(/C=N/OC)c(C)c(Cl)c2OC)[C@H]1C [Compound 18, ethyl 2-([[(1E,2R,3R,4R)-3-[(1E,3E)-5-[3-chloro-6-hydroxy-2-methoxy-5-[(1E)-(methoxyimino)methyl]-4-methylphenyl]-3-methylpenta-1,3-dien-1-yl]-2,3,4-trimethylcyclohexylidene]amino]oxy)acetate] | 86 |  |  | 59 | 
11 | CC(/C=C/[C@@]1(C)[C@H](C)CC/C(=N\OCC(=O)O)[C@@H]1C)=C\Cc1c(O)c(C=O)c(C)c(Cl)c1OCF [Compound 26, 2-([[(1E,2R,3R,4R)-3-[(1E,3E)-5-[3-chloro-2-(fluoromethoxy)-5-formyl-6-hydroxy-4-methylphenyl]-3-methylpenta-1,3-dien-1-yl]-2,3,4-trimethylcyclohexylidene]amino]oxy)acetic Acid] |  | 192 (≈ 97.9 µg/mL) | 12.3 (≈ 6.27 µg/mL) |  | 
12 | CO/N=C/c1c(C)c(Cl)c(OC)c(C/C=C(C)/C=C/[C@@]2(C)[C@H](C)CCC(C)(O)[C@@H]2C)c1O (stereo partly drawn) [Compound 14, (E)-3-chloro-6-hydroxy-5-((2E,4E)-5-((1R,2R,6R)-3-hydroxy-1,2,3,6-tetramethylcyclohexyl)-3-methylpenta-2,4-dien-1-yl)-4-methoxy-2-methylbenzaldehyde O-methyl oxime] | 99 |  |  | 88 | 
13 | CO/N=C/c1c(C)c(Cl)c(OC)c(C/C=C(C)/C=C/[C@@]2(C)[C@H](C)CCC(NC3CC3)[C@@H]2C)c1O (stereo partly drawn) [Compound 23, 4-chloro-2-[(2E,4E)-5-[(1R,2R,6R)-3-(cyclopropylamino)-1,2,6-trimethylcyclohexyl]-3-methylpenta-2,4-dien-1-yl]-3-methoxy-6-[(1E)-(methoxyimino)methyl]-5-methylphenol] | 74 |  |  | 98 | 

Source: patent publication US10968186B2, “Ascochlorin derivative and use thereof as AMPK activator” (priority 2016, dated 2021)
